Experimental data: patent US20240317708A1, “INHIBITORS OF TRANSGLUTAMINASES” (ZEDIRA GMBH, priority 2021, published 2024)

Tests used:
[1] = Log D shake flask method (octanol / PBS pH 7.4, HPLC); type: physicochemical; conditions: octanol/phosphate-buffered saline (PBS); octanol / PBS pH 7.4, shake flask
Method: In order to classify the inventive compounds according to their lipophilicity, Log D values (distribution coefficient) were determined by means of the well-established shake flask method, measuring the partition of a compound between an octanol and phosphate-buffered saline (PBS, pH 7.4) by HPLC.

[2] = biological target: T1, recombinant human transglutaminase 2 (Homo sapiens, UniProt P21980); test: Transglutaminase assay (dansylcadaverine incorporation into dimethylcasein, DCC-assay); type: biochemical; conditions: recombinant human TG2 10 nM, dansylcadaverine/dimethylcasein, 37° C.
T1 construct: purchased Zedira T022
T1 sequence (P21980 1-687): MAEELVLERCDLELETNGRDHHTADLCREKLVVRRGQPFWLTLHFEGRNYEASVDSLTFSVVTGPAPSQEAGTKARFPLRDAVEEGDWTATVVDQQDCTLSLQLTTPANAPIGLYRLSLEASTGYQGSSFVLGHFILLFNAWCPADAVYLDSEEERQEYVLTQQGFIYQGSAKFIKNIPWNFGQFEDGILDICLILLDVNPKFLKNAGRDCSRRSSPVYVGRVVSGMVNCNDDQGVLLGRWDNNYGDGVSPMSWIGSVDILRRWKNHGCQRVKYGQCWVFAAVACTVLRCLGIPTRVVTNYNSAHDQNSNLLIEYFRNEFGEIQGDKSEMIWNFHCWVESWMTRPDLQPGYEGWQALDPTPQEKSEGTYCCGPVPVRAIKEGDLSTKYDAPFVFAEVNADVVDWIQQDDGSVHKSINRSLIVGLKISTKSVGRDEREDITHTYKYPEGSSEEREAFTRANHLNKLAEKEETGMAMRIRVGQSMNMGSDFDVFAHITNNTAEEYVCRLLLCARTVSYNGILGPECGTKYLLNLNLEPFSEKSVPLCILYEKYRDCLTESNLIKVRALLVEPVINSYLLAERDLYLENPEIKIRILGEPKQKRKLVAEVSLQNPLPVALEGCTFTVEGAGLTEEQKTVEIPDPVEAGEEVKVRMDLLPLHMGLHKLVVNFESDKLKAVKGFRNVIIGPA
How it was run: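 IC50 derived from fluorescence slope between 20 and 30 min (λex 330 nm, λem 500 nm, 37 °C), expressed relative to a 2% DMSO control. Reaction: 10 nM recombinant human TG2, 4 μM dimethylcasein, 16.7 μM dansylcadaverine, 10 mM CaCl2 and glutathione, pH 8.0.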

[3] = Caco-2 permeability assay (CacoReady kit); type: in vitro ADME; conditions: human
How it was run: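 Apparent permeability coefficients (Papp) were measured across Caco-2 cell barriers using a ready-to-use kit run per the supplier's protocol. Values serve as a predictor of oral/intestinal bioavailability.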

SMILES	logD [1]	IC50 [2]	Papp [3]
COC(=O)/C=C/CC[C@H](NC(=O)c1sc(C(F)(F)F)nc1C)C(=O)Nc1cccn(CC(=O)N[C@H]2C[C@H]3CC[C@]2(C)C3(C)C)c1=O [III-127, (S,E)-methyl 6-(4-methyl-2-(trifluoromethyl)thiazole-5-carboxamido)-7-oxo-7-(2-oxo-1-(2-oxo-2-((1R,2S,4R)-1,7,7-trimethylbicyclo[2.2.1]heptan-2-ylamino)ethyl)-1,2-dihydropyridin-3-ylamino)hept-2-enoate]	3 to 5	< 25 nM	1 to 10 ×10⁻⁶ cm/s
COC(=O)/C=C/CC[C@H](NC(=O)c1cncn1C)C(=O)Nc1cccn(CC(=O)N[C@H]2C[C@H]3CC[C@]2(C)C3(C)C)c1=O [III-60, (S,E)-methyl 6-(1-methyl-1H-imidazole-5-carboxamido)-7-oxo-7-(2-oxo-1-(2-oxo-2-((1R,2S,4R)-1,7,7-trimethylbicyclo[2.2.1]heptan-2-ylamino)ethyl)-1,2-dihydropyridin-3-ylamino)hept-2-enoate]	3 to 5	< 25 nM	< 1 ×10⁻⁶ cm/s
COC(=O)/C=C/CC[C@H](NC(=O)c1ccnn1C)C(=O)Nc1cccn(CC(=O)N[C@H]2C[C@H]3CC[C@]2(C)C3(C)C)c1=O [III-122, (S,E)-methyl 6-(1-methyl-1H-pyrazole-5-carboxamido)-7-oxo-7-(2-oxo-1-(2-oxo-2-((1R,2S,4R)-1,7,7-trimethylbicyclo[2.2.1]heptan-2-ylamino)ethyl)-1,2-dihydropyridin-3-ylamino)hept-2-enoate]	1 to 3	25 to 250 nM	< 1 ×10⁻⁶ cm/s
COC(=O)/C=C/CC[C@H](NC(=O)c1cc2c(F)c(F)ccc2[nH]1)C(=O)Nc1cccn(CC(=O)NC2C3CC4CC(C3)CC2C4)c1=O (stereo partly drawn) [III-9, (S,E)-methyl 6-(4,5-difluoro-1H-indole-2-carboxamido)-7-(1-(2-(2-adamantylamino)-2-oxoethyl)-2-oxo-1,2-dihydropyridin-3-ylamino)-7-oxohept-2-enoate]	3 to 5	< 25 nM	< 1 ×10⁻⁶ cm/s
COC(=O)/C=C/CC[C@H](NC(=O)c1ncns1)C(=O)Nc1cccn(CC(=O)NC23CC(C2)C3)c1=O [III-170, (S,E)-methyl 7-(1-(2-(bicyclo[1.1.1]pentan-1-ylamino)-2-oxoethyl)-2-oxo-1,2-dihydropyridin-3-ylamino)-7-oxo-6-(1,2,4-thiadiazole-5-carboxamido)hept-2-enoate]	< 1	25 to 250 nM	< 1 ×10⁻⁶ cm/s
COC(=O)/C=C/CC[C@H](NC(=O)c1cc(Br)cs1)C(=O)Nc1cccn(CC(=O)NC2C3CC4CC(C3)CC2C4)c1=O (stereo partly drawn) [III-18, (S,E)-methyl 6-(4-bromothiophene-2-carboxamido)-7-(1-(2-(2-adamantylamino)-2-oxoethyl)-2-oxo-1,2-dihydropyridin-3-ylamino)-7-oxohept-2-enoate]	3 to 5	< 25 nM	< 1 ×10⁻⁶ cm/s
COC(=O)/C=C/CC[C@H](NC(=O)c1ccn(C)n1)C(=O)Nc1cccn(CC(=O)NC2C3CC4CC(C3)CC2C4)c1=O (stereo partly drawn) [III-129, (S,E)-methyl 7-(1-(2-(2-adamantylamino)-2-oxoethyl)-2-oxo-1,2-dihydropyridin-3-ylamino)-6-(1-methyl-1H-pyrazole-3-carboxamido)-7-oxohept-2-enoate]	1 to 3	25 to 250 nM	< 1 ×10⁻⁶ cm/s
O=C(/C=C/CC[C@H](NC(=O)c1nc(Br)cs1)C(=O)Nc1cccn(CC(=O)NC23CC(C2)C3)c1=O)NCc1ccccc1 [III-155, (S,E)-N1-benzyl-N7-(1-(2-(bicyclo[1.1.1]pentan-1-ylamino)-2-oxoethyl)-2-oxo-1,2-dihydropyridin-3-yl)-6-(4-bromothiazole-2-carboxamido)hept-2-enediamide]	1 to 3	25 to 250 nM	1 to 10 ×10⁻⁶ cm/s
COC(=O)/C=C/CC[C@H](NC(=O)c1sc(C(F)(F)F)nc1C)C(=O)Nc1cccn(CC(=O)NC23CC4(C)CC(C)(CC(C)(C4)C2)C3)c1=O [III-95, (S,E)-methyl 7-(1-(2-(3,5,7-trimethyl-1-adamantylamino)-2-oxoethyl)-2-oxo-1,2-dihydropyridin-3-ylamino)-6-(4-methyl-2-(trifluoromethyl)thiazole-5-carboxamido)-7-oxohept-2-enoate]	3 to 5	< 25 nM	1 to 10 ×10⁻⁶ cm/s

More lines, now with the values ahead:

logD [1]	IC50 [2]	Papp [3]	SMILES
3 to 5	< 25 nM	1 to 10 ×10⁻⁶ cm/s	COC(=O)/C=C/CC[C@H](NC(=O)c1oc2ccccc2c1C)C(=O)Nc1cccn(CC(=O)N[C@@H]2C[C@@H]3C[C@H]([C@H]2C)C3(C)C)c1=O [III-69, (S,E)-methyl 6-(3-methylbenzofuran-2-carboxamido)-7-oxo-7-(2-oxo-1-(2-oxo-2-((1R,2R,3R,5S)-2,6,6-trimethylbicyclo[3.1.1]heptan-3-ylamino)ethyl)-1,2-dihydropyridin-3-ylamino)hept-2-enoate]
3 to 5	25 to 250 nM	1 to 10 ×10⁻⁶ cm/s	COC(=O)/C=C/CC[C@H](NC(=O)c1oc2ccccc2c1C)C(=O)Nc1cccn(CC(=O)NC23CC4CC(C2)C(F)(F)C(C4)C3)c1=O [III-55, (S,E)-methyl 7-(1-(2-(4,4-difluoroadamantan-1-amino)-2-oxoethyl)-2-oxo-1,2-dihydropyridin-3-ylamino)-6-(3-methylbenzofuran-2-carboxamido)-7-oxohept-2-enoate]
3 to 5	< 25 nM	1 to 10 ×10⁻⁶ cm/s	COC(=O)/C=C/CC[C@H](NC(=O)c1oc2ccccc2c1C)C(=O)Nc1cccn(CC(=O)N[C@@H]2C[C@H]3CC[C@]2(C)C3(C)C)c1=O [III-68, (S,E)-methyl 6-(3-methylbenzofuran-2-carboxamido)-7-oxo-7-(2-oxo-1-(2-oxo-2-((1R,2R,4R)-1,7,7-trimethylbicyclo[2.2.1]heptan-2-ylamino)ethyl)-1,2-dihydropyridin-3-ylamino)hept-2-enoate]
3 to 5	25 to 250 nM	1 to 10 ×10⁻⁶ cm/s	Cc1c(C(=O)N[C@@H](CC/C=C/C(=O)N(C)C)C(=O)Nc2cccn(CC(=O)NC3C4CC5CC(C4)CC3C5)c2=O)oc2ccccc12 (stereo partly drawn) [III-75, (S,E)-N^7-(1-(2-(2-adamantylamino)-2-oxoethyl)-2-oxo-1,2-dihydropyridin-3-yl)-N^1,N^1-dimethyl-6-(3-methylbenzofuran-2-carboxamido)hept-2-enediamide]
3 to 5	< 25 nM	1 to 10 ×10⁻⁶ cm/s	CCOC(=O)/C=C/CC[C@H](NC(=O)c1oc2ccccc2c1C)C(=O)Nc1cccn(CC(=O)NC2C3CC4CC(C3)CC2C4)c1=O (stereo partly drawn) [III-89, (S,E)-ethyl 7-(1-(2-(2-adamantylamino)-2-oxoethyl)-2-oxo-1,2-dihydropyridin-3-ylamino)-6-(3-methylbenzofuran-2-carboxamido)-7-oxohept-2-enoate]
3 to 5	< 25 nM	1 to 10 ×10⁻⁶ cm/s	COC(=O)/C=C/CC[C@H](NC(=O)c1oc2ccccc2c1C)C(=O)Nc1cccn(CC(=O)NC2CC3CCC2CC3)c1=O (stereo partly drawn) [III-67, (6S,E)-methyl 7-(1-(2-(bicyclo[2.2.2]octan-2-ylamino)-2-oxoethyl)-2-oxo-1,2-dihydropyridin-3-ylamino)-6-(3-methylbenzofuran-2-carboxamido)-7-oxohept-2-enoate]
3 to 5	< 25 nM	1 to 10 ×10⁻⁶ cm/s	COC(=O)/C=C/CC[C@H](NC(=O)c1oc2ccccc2c1C)C(=O)Nc1cccn(CC(=O)NC23CC4CC(CC(F)(C4)C2)C3)c1=O [III-51, (S,E)-methyl 7-(1-(2-(3-fluoroadamantan-1-amino)-2-oxoethyl)-2-oxo-1,2-dihydropyridin-3-ylamino)-6-(3-methylbenzofuran-2-carboxamido)-7-oxohept-2-enoate]
3 to 5	< 25 nM	1 to 10 ×10⁻⁶ cm/s	COC(=O)/C=C/CC[C@H](NC(=O)c1oc2ccccc2c1C)C(=O)Nc1cccn(CC(=O)NC2C3CC4CC2CC(Cl)(C4)C3)c1=O (stereo partly drawn) [III-40, (S,E)-methyl 7-(1-(2-(5-chloroadamantan-2-amino)-2-oxoethyl)-2-oxo-1,2-dihydropyridin-3-ylamino)-6-(3-methylbenzofuran-2-carboxamido)-7-oxohept-2-enoate]
3 to 5	< 25 nM	1 to 10 ×10⁻⁶ cm/s	COC(=O)/C=C/CC[C@H](NC(=O)c1oc2ccccc2c1C)C(=O)Nc1cccn(CC(=O)N[C@]23C[C@H]4C5CC6CC4[C@@H](C2)[C@@H](C6)[C@@H]5C3)c1=O (stereo in doubt) [III-74, (S,E)-methyl 7-(1-(2-(diamantane-4-amino)-2-oxoethyl)-2-oxo-1,2-dihydropyridin-3-ylamino)-6-(3-methylbenzofuran-2-carboxamido)-7-oxohept-2-enoate]
